# Experimental data published in patent US8765748B2, “Indazolyl, benzimidazolyl, benzotriazolyl substituted indolinone derivatives as kinase inhibitors useful in the treatment of cancer” (University Health Network, priority 2007, dated 2014).
# Tests used:
# Experiment in all cases: Kinase Selectivity Assay (CEREP, HTRF)
# Format in all cases: biochemical
# [1] = target: T1, CDC2/CDK1 (cycB) (Homo sapiens, UniProt P06493); conditions: read-out: % Inhibition at 10 μM Concentration, CDC2/CDK1
# T1 construct: CEREP, France (ran the assays)
# T1 sequence (P06493 whole entry): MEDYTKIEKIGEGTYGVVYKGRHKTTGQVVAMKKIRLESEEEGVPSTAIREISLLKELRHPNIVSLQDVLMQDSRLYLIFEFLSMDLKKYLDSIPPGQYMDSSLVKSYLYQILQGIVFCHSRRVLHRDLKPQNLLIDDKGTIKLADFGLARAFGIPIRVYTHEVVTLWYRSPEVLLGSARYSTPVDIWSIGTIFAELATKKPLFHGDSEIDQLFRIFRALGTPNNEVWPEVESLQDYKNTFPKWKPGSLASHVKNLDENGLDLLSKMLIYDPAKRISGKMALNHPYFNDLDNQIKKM
# T1 sequence (P14635 whole entry partner): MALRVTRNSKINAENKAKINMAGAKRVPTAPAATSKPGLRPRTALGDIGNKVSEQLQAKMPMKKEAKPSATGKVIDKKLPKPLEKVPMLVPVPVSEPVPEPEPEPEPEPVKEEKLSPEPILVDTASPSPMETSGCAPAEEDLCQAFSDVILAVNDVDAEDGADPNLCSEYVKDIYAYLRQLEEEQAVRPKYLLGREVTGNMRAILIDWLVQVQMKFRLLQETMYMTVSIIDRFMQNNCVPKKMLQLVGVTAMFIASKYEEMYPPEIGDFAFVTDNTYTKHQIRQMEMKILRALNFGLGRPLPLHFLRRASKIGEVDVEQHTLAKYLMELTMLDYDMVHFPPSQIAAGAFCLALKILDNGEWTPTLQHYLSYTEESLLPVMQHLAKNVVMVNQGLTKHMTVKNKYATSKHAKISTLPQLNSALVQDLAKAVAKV
# Experimental: (§1) kinase, ROCK2, RSK2, Src kinase, Syk, and TRKA. The % Inhibition was determined
# [2] = target: T2, CHK1 (Homo sapiens, UniProt O14757); conditions: read-out: % Inhibition at 10 μM Concentration, CHK1
# T2 construct: CEREP, France (ran the assays)
# T2 sequence (O14757 1-476): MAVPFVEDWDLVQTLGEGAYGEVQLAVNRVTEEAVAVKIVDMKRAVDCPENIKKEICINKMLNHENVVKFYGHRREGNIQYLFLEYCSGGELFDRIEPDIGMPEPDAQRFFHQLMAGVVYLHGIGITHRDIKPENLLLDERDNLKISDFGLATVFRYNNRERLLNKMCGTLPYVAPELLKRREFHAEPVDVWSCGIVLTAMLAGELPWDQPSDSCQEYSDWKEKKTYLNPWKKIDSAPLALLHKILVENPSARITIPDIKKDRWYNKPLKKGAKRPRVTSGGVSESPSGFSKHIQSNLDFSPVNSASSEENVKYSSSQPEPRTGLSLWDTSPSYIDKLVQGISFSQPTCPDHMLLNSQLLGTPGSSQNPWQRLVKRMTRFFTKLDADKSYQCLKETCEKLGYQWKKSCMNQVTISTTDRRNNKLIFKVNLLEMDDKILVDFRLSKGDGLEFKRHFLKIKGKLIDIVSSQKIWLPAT
# Experimental: as §1
# [3] = target: T3, CHK2 (Homo sapiens, UniProt O96017); conditions: read-out: % Inhibition at 10 μM Concentration, CHK2
# T3 construct: CEREP, France (ran the assays)
# Experimental: as §1
# [4] = target: T4, CSK (Homo sapiens, UniProt P41240); conditions: read-out: % Inhibition at 10 μM Concentration, CSK
# T4 construct: CEREP, France (ran the assays)
# Experimental: as §1
# [5] = target: T5, CaMK2a (Homo sapiens, UniProt Q9UQM7); conditions: read-out: % Inhibition at 10 μM Concentration, CaMK2alpha
# T5 construct: CEREP, France (ran the assays)
# Experimental: as §1
# [6] = target: T6, CaMK4 (Homo sapiens, UniProt Q16566); conditions: read-out: % Inhibition at 10 μM Concentration, CaMK4
# T6 construct: CEREP, France (ran the assays)
# T6 sequence (Q16566 1-473): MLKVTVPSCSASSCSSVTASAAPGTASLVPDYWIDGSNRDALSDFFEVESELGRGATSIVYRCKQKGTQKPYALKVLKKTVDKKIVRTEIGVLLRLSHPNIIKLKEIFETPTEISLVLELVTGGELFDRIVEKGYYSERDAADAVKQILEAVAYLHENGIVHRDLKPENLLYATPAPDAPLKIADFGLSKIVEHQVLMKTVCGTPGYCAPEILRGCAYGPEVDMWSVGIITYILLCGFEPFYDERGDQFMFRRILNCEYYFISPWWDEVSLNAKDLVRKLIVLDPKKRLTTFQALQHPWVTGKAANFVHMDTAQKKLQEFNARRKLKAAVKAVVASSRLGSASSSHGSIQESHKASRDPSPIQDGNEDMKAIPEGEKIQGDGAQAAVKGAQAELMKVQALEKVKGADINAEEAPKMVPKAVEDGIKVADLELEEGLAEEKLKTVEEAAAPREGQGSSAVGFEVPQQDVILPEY
# Experimental: as §1
# [7] = target: T7, FLT-1 kinase (VEGFR1) (Homo sapiens, UniProt P17948); conditions: read-out: % Inhibition at 10 μM Concentration, FLT-1 (VEGFR1)
# T7 construct: CEREP, France (ran the assays)
# Experimental: as §1
# [8] = target: KDR kinase (VEGFR2) (Homo sapiens, UniProt P35968); conditions: read-out: % Inhibition at 10 μM Concentration, KDR (VEGFR2)
# Sequence of KDR kinase (VEGFR2) (P35968 20-1356): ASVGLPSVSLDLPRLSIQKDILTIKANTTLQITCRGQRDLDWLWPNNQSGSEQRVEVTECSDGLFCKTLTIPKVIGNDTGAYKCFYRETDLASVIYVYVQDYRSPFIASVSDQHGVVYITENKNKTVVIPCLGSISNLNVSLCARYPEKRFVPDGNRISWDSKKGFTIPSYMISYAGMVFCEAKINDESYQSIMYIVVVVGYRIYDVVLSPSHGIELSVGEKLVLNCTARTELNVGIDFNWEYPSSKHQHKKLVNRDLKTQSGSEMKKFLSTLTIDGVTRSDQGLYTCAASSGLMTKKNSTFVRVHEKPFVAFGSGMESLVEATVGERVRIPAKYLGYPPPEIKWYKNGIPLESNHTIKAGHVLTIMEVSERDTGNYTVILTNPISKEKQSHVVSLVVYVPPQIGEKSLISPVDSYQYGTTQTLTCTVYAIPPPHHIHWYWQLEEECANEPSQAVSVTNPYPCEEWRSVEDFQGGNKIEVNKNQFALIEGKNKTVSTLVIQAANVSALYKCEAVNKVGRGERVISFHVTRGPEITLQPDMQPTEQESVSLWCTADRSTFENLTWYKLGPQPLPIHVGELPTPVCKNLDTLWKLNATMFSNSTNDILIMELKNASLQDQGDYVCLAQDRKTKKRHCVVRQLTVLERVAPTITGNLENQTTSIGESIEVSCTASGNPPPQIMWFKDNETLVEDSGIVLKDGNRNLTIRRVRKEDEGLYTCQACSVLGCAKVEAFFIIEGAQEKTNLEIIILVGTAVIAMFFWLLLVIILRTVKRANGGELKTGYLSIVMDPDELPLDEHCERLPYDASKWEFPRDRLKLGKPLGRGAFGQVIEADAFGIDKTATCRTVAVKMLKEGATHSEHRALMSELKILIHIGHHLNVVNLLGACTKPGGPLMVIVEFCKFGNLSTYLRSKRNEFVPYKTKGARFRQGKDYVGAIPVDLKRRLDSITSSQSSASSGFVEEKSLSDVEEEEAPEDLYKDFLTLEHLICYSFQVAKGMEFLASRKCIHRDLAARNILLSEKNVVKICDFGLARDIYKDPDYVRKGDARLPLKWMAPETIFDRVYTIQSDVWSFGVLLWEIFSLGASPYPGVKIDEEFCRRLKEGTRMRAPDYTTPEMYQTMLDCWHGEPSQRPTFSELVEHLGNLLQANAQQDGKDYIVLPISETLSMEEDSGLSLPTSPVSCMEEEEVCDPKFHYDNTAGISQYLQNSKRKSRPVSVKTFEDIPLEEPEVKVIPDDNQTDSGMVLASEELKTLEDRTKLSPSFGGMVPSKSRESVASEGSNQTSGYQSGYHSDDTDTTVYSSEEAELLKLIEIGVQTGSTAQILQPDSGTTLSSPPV
# Experimental: as §1
# [9] = target: Lck kinase (Homo sapiens, UniProt P06239); conditions: read-out: % Inhibition at 10 μM Concentration, Lck
# Experimental: as §1
# [10] = target: Lyn (Homo sapiens, UniProt P07948); conditions: read-out: % Inhibition at 10 μM Concentration, Lyn
# Sequence of Lyn (P07948 whole entry): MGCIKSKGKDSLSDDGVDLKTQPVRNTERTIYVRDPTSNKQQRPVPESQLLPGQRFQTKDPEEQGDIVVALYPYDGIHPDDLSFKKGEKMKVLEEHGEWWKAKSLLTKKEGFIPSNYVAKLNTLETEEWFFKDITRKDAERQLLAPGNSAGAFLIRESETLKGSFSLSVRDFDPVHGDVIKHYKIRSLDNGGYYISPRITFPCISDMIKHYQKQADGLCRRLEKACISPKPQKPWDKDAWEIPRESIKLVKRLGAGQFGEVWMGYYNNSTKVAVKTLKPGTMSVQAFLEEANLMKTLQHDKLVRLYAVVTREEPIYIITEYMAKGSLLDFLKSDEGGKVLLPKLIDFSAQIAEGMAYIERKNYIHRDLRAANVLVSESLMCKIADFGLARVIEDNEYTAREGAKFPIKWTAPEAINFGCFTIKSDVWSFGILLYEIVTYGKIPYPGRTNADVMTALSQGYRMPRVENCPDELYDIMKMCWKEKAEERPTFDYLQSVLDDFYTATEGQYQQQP
# Experimental: as §1
# [11] = target: PDGFRb kinase (Homo sapiens, UniProt P09619); conditions: read-out: % Inhibition at 10 μM Concentration, PDGFRbeta
# Sequence of PDGFRb kinase (P09619 33-1106): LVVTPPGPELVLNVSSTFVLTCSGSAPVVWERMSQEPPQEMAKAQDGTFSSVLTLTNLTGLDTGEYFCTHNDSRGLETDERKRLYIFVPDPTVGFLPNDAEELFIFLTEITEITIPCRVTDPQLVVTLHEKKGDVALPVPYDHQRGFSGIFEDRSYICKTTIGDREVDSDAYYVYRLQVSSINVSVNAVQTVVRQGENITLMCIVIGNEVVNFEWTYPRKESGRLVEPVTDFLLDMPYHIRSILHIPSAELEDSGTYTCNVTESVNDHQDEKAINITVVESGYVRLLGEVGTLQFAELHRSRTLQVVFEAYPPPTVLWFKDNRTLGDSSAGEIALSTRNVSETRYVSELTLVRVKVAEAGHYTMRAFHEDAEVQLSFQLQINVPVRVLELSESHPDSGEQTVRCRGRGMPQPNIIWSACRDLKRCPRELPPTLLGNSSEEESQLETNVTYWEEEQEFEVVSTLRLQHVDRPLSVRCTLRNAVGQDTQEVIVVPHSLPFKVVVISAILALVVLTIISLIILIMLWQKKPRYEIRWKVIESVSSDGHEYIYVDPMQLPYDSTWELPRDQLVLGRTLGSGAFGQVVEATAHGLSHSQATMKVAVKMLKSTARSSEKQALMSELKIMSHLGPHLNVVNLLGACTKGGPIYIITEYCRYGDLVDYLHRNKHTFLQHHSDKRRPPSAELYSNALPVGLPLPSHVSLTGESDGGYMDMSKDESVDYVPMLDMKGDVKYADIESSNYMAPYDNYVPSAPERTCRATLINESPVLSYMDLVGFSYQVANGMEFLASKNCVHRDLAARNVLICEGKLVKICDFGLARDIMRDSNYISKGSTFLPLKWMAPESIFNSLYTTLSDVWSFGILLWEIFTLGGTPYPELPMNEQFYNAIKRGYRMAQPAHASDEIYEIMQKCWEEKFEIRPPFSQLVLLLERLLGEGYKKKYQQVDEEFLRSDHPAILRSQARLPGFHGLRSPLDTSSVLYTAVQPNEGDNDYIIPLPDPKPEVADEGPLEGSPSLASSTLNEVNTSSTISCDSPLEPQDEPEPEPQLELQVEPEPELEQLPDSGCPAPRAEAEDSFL
# Experimental: as §1
# [12] = target: PKCa (Homo sapiens, UniProt P17252); conditions: read-out: % Inhibition at 10 μM Concentration, PKCalpha
# Experimental: as §1
# [13] = target: PKCb1 (Homo sapiens, UniProt P05771); conditions: read-out: % Inhibition at 10 μM Concentration, PKCbeta 1
# Sequence of PKCb1 (P05771 whole entry): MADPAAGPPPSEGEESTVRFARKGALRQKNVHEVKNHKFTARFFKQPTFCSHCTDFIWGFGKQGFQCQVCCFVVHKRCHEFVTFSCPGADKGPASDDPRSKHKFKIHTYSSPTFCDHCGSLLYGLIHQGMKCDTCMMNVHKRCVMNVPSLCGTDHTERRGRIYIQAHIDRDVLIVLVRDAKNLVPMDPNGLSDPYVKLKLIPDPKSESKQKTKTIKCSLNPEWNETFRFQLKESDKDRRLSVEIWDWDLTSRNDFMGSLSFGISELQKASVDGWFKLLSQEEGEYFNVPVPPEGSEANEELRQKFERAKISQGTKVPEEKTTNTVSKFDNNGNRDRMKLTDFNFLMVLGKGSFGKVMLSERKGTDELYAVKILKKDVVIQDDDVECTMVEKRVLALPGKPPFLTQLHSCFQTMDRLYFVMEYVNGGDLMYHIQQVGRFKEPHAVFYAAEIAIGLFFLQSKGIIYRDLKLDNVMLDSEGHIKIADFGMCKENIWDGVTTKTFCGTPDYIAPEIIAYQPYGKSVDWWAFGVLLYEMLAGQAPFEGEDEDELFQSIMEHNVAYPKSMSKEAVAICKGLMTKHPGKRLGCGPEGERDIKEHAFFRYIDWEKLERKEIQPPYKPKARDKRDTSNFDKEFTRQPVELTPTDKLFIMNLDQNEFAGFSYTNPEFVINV
# Experimental: as §1
# [14] = target: ROCK2 (Homo sapiens, UniProt O75116); conditions: read-out: % Inhibition at 10 μM Concentration, ROCK2
# Experimental: as §1
# [15] = target: RSK2 (Homo sapiens, UniProt P51812); conditions: read-out: % Inhibition at 10 μM Concentration, RSK2
# Sequence of RSK2 (P51812 whole entry): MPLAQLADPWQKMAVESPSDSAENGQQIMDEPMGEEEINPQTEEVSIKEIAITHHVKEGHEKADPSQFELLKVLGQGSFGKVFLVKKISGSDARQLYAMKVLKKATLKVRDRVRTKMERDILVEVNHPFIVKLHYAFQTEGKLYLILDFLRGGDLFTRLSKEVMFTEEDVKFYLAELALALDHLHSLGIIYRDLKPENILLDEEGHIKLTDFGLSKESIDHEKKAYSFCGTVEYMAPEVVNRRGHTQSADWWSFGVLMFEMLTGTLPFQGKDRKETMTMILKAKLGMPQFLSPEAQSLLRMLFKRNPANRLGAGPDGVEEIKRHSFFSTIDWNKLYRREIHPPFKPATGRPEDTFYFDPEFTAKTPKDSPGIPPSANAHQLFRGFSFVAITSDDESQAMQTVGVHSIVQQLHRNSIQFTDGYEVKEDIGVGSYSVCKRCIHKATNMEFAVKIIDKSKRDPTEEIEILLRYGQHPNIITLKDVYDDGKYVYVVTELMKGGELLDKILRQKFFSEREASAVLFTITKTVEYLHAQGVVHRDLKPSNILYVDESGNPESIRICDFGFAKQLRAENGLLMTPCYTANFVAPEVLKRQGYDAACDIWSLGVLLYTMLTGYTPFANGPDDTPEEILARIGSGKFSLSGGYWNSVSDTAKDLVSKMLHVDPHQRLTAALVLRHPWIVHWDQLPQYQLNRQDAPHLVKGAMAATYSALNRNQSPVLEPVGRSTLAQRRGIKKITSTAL
# Experimental: as §1
# [16] = target: p38a kinase (Homo sapiens, UniProt Q16539); conditions: read-out: % Inhibition at 10 μM Concentration, p38alpha
# Experimental: as §1
# [17] = target: T8, p38d kinase (Homo sapiens, UniProt O15264); conditions: read-out: % Inhibition at 10 μM Concentration, p38delta
# T8 sequence (O15264 1-365): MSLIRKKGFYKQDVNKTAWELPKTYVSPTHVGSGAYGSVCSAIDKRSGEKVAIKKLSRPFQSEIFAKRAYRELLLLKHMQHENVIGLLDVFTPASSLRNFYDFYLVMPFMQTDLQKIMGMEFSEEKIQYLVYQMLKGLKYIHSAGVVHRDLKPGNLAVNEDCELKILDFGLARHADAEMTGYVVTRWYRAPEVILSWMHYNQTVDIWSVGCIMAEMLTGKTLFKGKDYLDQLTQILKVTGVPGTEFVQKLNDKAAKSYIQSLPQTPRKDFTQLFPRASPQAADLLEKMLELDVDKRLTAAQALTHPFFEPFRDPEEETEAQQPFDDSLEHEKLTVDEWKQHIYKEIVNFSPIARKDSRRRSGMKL
# Experimental: as §1
Structure (SMILES),inhibition at 10 µM [1],inhibition at 10 µM [2],inhibition at 10 µM [3],inhibition at 10 µM [4],inhibition at 10 µM [5],inhibition at 10 µM [6],inhibition at 10 µM [7],inhibition at 10 µM [8],inhibition at 10 µM [9],inhibition at 10 µM [10],inhibition at 10 µM [11],inhibition at 10 µM [12],inhibition at 10 µM [13],inhibition at 10 µM [14],inhibition at 10 µM [15],inhibition at 10 µM [16],inhibition at 10 µM [17]
"O=C1Nc2ccccc2C1=Cc1ccc2c(/C=C/c3ccccn3)n[nH]c2c1 (mixture of isomers) [Example A41, (E and Z)-3-((3-((E)-2-(pyridin-2-yl)vinyl)-1H-indazol-6-yl)methylene)indolin-2-one]",62%,7%,22%,86%,31%,27%,99%,100%,88%,98%,100%,2%,-2%,-3%,38%,16%,-5%
"COc1ccc2c(c1)C(=Cc1ccc3c(-c4ccc(N5CCN(C)CC5)nc4)n[nH]c3c1)C(=O)N2 (mixture of isomers) [Example A97, (E and Z)-5-methoxy-3-((3-(6-(4-methylpiperazin-1-yl)pyridin-3-yl)-1H-indazol-6-yl)methylene)indolin-2-one]",15%,3%,4%,51%,14%,2%,73%,93%,89%,85%,0%,9%,2%,22%,37%,11%,13%
"O=C1Nc2ccccc2/C1=C\c1ccc2[nH]nnc2c1 [Example A1, (E)-3-((1H-benzo[d][1,2,3]triazol-5-yl)methylene)indolin-2-one]",2%,-6%,14%,8%,4%,3%,0%,59%,,14%,46%,9%,1%,1%,4%,-8%,0%
"O=C1Nc2ccccc2/C1=C\c1ccc2cn[nH]c2c1 [Example A5, (E)-3-((1H-indazol-6-yl)methylene)indolin-2-one]",9%,-2%,2%,5%,-3%,26%,16%,29%,0%,-5%,19%,0%,-5%,3%,1%,18%,-8%
"O=C1Nc2ccccc2/C1=C\c1ccc2c(/C=C/c3ccccc3Cl)n[nH]c2c1 [Example A60, (E)-3-((3-((E)-2-chlorostyryl)-1H-indazol-6-yl)methylene)indolin-2-one]",18%,-1%,6%,17%,-2%,-15%,42%,8%,30%,88%,2%,-1%,0%,-1%,0%,1%,3%
